Test results reported in patent US10150758B2, “PRMT5 inhibitors and uses thereof” (Epizyme, Inc., priority 2012, dated 2018).

Tests used:
[1] = tested on: Z-138 cells; assay: Z-138 Proliferation Assay (Cell Titer Glo); format: cell-based; settings: Homo sapiens, 120 h, 5 days, top concentration 20 μM
Source text: [formula] Z-138 Proliferation Assay
Z-138 suspension cells were purchased from ATCC (American Type Culture Collection, Manassas, Va.). RPMI/Glutamax medium, penicillin-streptomycin, heat inactivated fetal bovine serum were purchased from Life Technologies, Grand Island, N.Y., USA. V-bottom polypropylene 384-well plates were purchased from Greiner Bio-One, Monroe, N.C., USA. Cell culture 384-well white opaque plates were purchased from Perkin Elmer, Waltham, Mass., USA. Cell-Titer Glo® was purchased from Promega Corporation, Madison, Wis., USA. SpectraMax M5 plate reader was purchased from Molecular Devices LLC, Sunnyvale, Calif., USA.
Z-138 suspension cells were maintained in growth medium (RPMI 1640 supplemented with 10% v/v heat inactivated fetal bovine serum and cultured at 37° C. under 5% CO2. Under assay conditions, cells were incubated in assay medium (RPMI 1640 supplemented with 10% v/v heat inactivated fetal bovine serum and 100 units/mL penicillin-streptomycin) at 37° C. under 5% CO2.
For the assessment of the effect of compounds on the proliferation of the Z-138 cell line, exponentially growing cells were plated in 384-well white opaque plates at a density of 10,000 cells/ml in a final volume of 50 μl of assay medium. A compound source plate was prepared by performing triplicate nine-point 3-fold serial dilutions in DMSO, beginning at 10 mM (final top concentration of compound in the assay was 20 μM and the DMSO was 0.2%). A 100 nL aliquot from the compound stock plate was added to its respective well in the cell plate. […] After addition of compounds, assay plates were incubated for 5 days at 37° C., 5% CO2, relative humidity >90%. Cell viability was measured by quantitation of ATP present in the cell cultures, adding 35 μl of Cell Titer Glo® reagent to the cell plates. Luminescence was read in the SpectraMax M5 microplate reader. The concentration of compound inhibiting cell viability by 50% was determined using a 4-parametric fit of the normalized dose response curves.

[2] = target: PRMT5/MEP50 (Homo sapiens (Human), UniProt O14744); assay: PRMT5 Biochemical Assay (PRMT5/MEP50 enzyme assay on peptide substrate, 3H-SAM Flashplate); settings: PRMT5/MEP50 4 nM, 3H-SAM 75 nM, peptide 40 nM
Source text: S-adenosylmethionine (SAM), S-adenosylhomocysteine (SAH), bicine, KCl, Tween20, dimethylsulfoxide (DMSO), bovine skin gelatin (BSG), and Tris(2-carboxyethyl)phosphine hydrochloride solution (TCEP) were purchased from Sigma-Aldrich at the highest level of purity possible. ^3H-SAM was purchase from American Radiolabeled Chemicals with a specific activity of 80 Ci/mmol. 384-well streptavidin Flashplates were purchased from PerkinElmer.
Peptide representative of human histone H4 residues 1-15 was synthesized with a C-terminal linker-affinity tag motif and a C-terminal amide cap by 21st Century Biochemicals. The peptide was high high-perfomance liquid chromatography (HPLC) purified to greater than 95% purity and confirmed by liquid chromatography mass spectrometry (LC-MS). The sequence was Ac-[…][K-Biot]-amide (SEQ ID NO.:3).
Full-length human PRMT5 (NM_006109.3) transcript variant 1 clone was amplified from a fetal brain cDNA library, incorporating flanking 5′ sequence encoding a FLAG tag ([…]) (SEQ ID NO.:4) fused directly to Ala 2 of PRMT5. Full-length human MEP50 (NM_024102) clone was amplified from a human testis cDNA library incorporating a 5′ sequence encoding a 6-histidine tag (MHHHHHH) (SEQ ID NO.:5) fused directly to Arg 2 of MEP50. The amplified genes were sublconed into pENTR/D/TEV (Life Technologies) and subsequently transferred by Gateway™ attL×attR recombination to pDEST8 baculvirus expression vector (Life Technologies).
Recombinant baculovirus and Baculovirus-Infected Insect Cells (BIIC) were generated according to Bac-to-Bac kit instructions (Life Technologies) and Wasilko, 2006, respectively. Protein over-expression was accomplished by infecting exponentially growing Spodoptera frugiperda (SF9) cell culture at 1.2×10^6 cell/ml with a 5000 fold dilution of BIIC stock. Infections were carried out at 27° C. for 72 hours, harvested by centrifugation, and stored at −80° C. for purification.
Flag-PRMT5/6His-MeP50 was eluted with 300 mM Imidazole in the same buffer. The purity of recovered protein was 87%. Reference: Wasilko, D. J. and S. E. Lee: “TIPS: titerless infected-cells preservation and scale-up” Bioprocess J., 5 (2006), pp. 29-32.
General Procedure for PRMT5/MEP50 Enzyme Assays on Peptide Substrates.
The assays were all performed in a buffer consisting of 20 mM Bicine (pH=7.6), 1 mM TCEP, 0.005% BSG, and 0.002% Tween20, prepared on the day of use. Compounds in 100% DMSO (1 ul) were spotted into a polypropylene 384-well V-bottom plates (Greiner) using a Platemate Plus outfitted with a 384-channel head (Thermo Scientific). DMSO (1 ul) was added to Columns 11, 12, 23, 24, rows A-H for the maximum signal control and 1 ul of SAH, a known product and inhibitor of PRMT5/MEP50, was added to columns 11, 12, 23, 24, rows I-P for the minimum signal control. A cocktail (40 ul) containing the PRMT5/MEP50 enzyme and the peptide was added by Multidrop Combi (Thermo-Fisher). The compounds were allowed to incubate with PRMT5/MEP50 for 30 min at 25 degrees Celsius, then a cocktail (10 ul) containing ^3H-SAM was added to initiate the reaction (final volume=51 ul). The final concentrations of the components were as follows: PRMT5/MEP50 was 4 nM, ^3H-SAM was 75 nM, peptide was 40 nM, SAH in the minimum signal control wells was 100 uM, and the DMSO concentration was 1%. The assays were stopped by the addition of non-radioactive SAM (10 ul) to a final concentration of 600 uM, which dilutes the ^3H-SAM to a level where its incorporation into the peptide substrate is no longer detectable. 50 ul of the reaction in the 384-well polypropylene plate was then transferred to a 384-well Flashplate and the biotinylated peptides were allowed to bind to the streptavidin surface for at least 1 hour before being washed three times with 0.1% Tween20 in a Biotek ELx405 plate washer. […]

Sequence of PRMT5/MEP50 (O14744 other isoform, or with tags, fused parts or gaps): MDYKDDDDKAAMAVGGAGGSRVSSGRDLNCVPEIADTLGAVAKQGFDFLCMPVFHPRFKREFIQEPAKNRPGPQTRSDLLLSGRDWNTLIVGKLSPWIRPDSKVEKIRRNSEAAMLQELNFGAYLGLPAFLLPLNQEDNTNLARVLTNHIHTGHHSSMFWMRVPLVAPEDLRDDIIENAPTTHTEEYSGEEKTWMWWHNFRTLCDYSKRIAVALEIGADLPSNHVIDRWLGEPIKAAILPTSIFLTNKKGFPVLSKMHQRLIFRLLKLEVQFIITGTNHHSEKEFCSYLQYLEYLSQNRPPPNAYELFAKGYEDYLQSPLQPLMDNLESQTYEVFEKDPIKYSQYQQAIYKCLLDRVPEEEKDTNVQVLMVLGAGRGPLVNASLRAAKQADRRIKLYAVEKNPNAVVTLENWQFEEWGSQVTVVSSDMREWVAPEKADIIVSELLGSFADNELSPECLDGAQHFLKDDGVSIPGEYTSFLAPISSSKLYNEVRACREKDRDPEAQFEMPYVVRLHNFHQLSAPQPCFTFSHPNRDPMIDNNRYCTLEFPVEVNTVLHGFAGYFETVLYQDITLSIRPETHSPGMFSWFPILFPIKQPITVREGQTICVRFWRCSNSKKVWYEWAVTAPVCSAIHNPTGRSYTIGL
Sequence of PRMT5/MEP50 (Q9BQA1 other isoform, or with tags, fused parts or gaps partner): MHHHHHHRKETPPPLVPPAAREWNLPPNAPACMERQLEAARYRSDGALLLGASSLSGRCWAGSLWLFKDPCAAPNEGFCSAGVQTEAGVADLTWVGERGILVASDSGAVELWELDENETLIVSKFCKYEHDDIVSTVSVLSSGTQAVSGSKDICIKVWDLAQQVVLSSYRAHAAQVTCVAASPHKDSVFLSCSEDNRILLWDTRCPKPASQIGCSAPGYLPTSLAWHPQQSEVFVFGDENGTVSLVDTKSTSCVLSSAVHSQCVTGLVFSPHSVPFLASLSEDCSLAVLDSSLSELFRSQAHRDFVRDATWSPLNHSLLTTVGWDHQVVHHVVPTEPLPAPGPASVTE

SMILES	IC50 [2] [µM]	EC50 [1] [µM]
Cc1ccc(N2CCN(CC(O)CN3CCc4ccccc4C3)C(=O)C2)cc1 (stereo not shown) [Compound 15, 1-(3-(3,4-dihydroisoquinolin-2(1H)-yl)-2-hydroxypropyl)-4-(p-tolyl)piperazin-2-one]	0.101 to 1	> 20
O=c1cc(Nc2ccccc2)ccn1C[C@H](O)CN1CCc2ccccc2C1 [Compound 19, (R)-1-(3-(3,4-dihydroisoquinolin-2(1H)-yl)-2-hydroxypropyl)-4-(phenylamino)pyridin-2(1H)-one]	0.101 to 1	> 20
CN(C)c1ccccc1N1CCN(C[C@H](O)CN2CCc3ccccc3C2)C(=O)C1 [Compound 29]	0.101 to 1	10 to 50
O=C1COc2ccccc2N1CC(O)CN1CCc2ccccc2C1 (stereo not shown) [Compound 31, 4-(3-(3,4-dihydroisoquinolin-2(1H)-yl)-2-hydroxypropyl)-2H-benzo[b][1,4]oxazin-3(4H)-one]	0.101 to 1	> 20

More lines, main results first:

IC50 [2] [µM]	SMILES	EC50 [1] [µM]
0.101 to 1	O=C1Cc2ccccc2N1CC(O)CN1CCc2ccccc2C1 (stereo not shown) [Compound 1, 1-(3-(3,4-dihydroisoquinolin-2(1H)-yl)-2-hydroxypropyl)indolin-2-one]	> 20
< 0.1	O=C1CN(c2cccc3cccnc23)CCN1CC(O)CN1CCc2ccccc2C1 (stereo not shown) [Compound 4, 1-(3-(3,4-dihydroisoquinolin-2(1H)-yl)-2-hydroxypropyl)-4-(quinolin-8-yl)piperazin-2-one]	1 to 10
< 0.1	O=C1CN(c2cccc(F)c2)CCN1CC(O)CN1CCc2ccccc2C1 (stereo not shown) [Compound 6]	> 20
< 0.1	O=C1CN(c2ccc(Cl)cc2)CCN1CC(O)CN1CCc2ccccc2C1 (stereo not shown) [Compound 7, 4-(4-chlorophenyl)-1-(3-(3,4-dihydroisoquinolin-2(1H)-yl)-2-hydroxypropyl)piperazin-2-one]	10 to 50
< 0.1	O=C1CN(c2cncc(N3CCOCC3)c2)CCN1CC(O)CN1CCc2ccccc2C1 (stereo not shown) [Compound 8, 1-(3-(3,4-dihydroisoquinolin-2(1H)-yl)-2-hydroxypropyl)-4-(5-morpholinopyridin-3-yl)piperazin-2-one]	1 to 10
0.101 to 1	O=C1CN(c2ccccc2Cl)CCN1CC(O)CN1CCc2ccccc2C1 (stereo not shown) [Compound 9]	10 to 50
< 0.1	O=C1CN(c2cccc(N3CCOCC3)c2)CCN1CC(O)CN1CCc2ccccc2C1 (stereo not shown) [Compound 12, 1-(3-(3,4-dihydroisoquinolin-2(1H)-yl)-2-hydroxypropyl)-4-(3-morpholinophenyl)piperazin-2-one]	1 to 10
